“Also recorded” adds a separate entry of the source. Read-outs that look alike come from different tables or passages of the source. No end group written: not given here.
Assays:
Qn-YFP = test: Polyglutamine-YFP (Qn-YFP) aggregate formation in co-transfected COS-7 cells, all lengths; assay type: cell-based; conditions: co-expression, 48 hours after transfection, FIG. 4
Method: (§1) COS-7 cells examined 48 hours after transfection using a Zeiss fluorescence microscope with the CFP/YFP filter set from Omega Optical Inc. The percentage of cells with aggregates was calculated by counting the number of transfected cells containing aggregate and dividing by the total number of transfected cells multiplied times 100. In each experiment at least 200 transfected cells were counted. Experiments were repeated at least four times. Error bars represent standard errors. *=p<0.05;**=p<0.01 (Student's t-test)
(§2) The CAG repeat of the Qn-GFP vector (Onodera, O. et al. (1996) FEBS Letters 399, 135-139) were inserted into the XhoI and EcoRI sites of the pEYFP-N1 vector (Clontech, Palo Alto, Calif.) to construct the Qn-YFP vectors. The polyglutamine-binding peptide and control constructs were prepared by ligating synthetic oligonucleotides into the XhoI and BamHI sites of the pECFP-N1 vector (Clontech) to obtain glutamine binding peptide 1-CFP (QBP1-CFP), scrambled QBP1-CFP (SCR-CFP), and a computer-generated random peptide-CFP (RAN)-CFP. The insert of QBP1-CFP was duplicated by PCR to obtain a tandem repeat of QBP1-CFP ((QBP1)2-CFP). The sequence of all constructs was confirmed by DNA sequencing. […]
(§3) COS-7 cells were grown and maintained in Dulbecco's modified Eagles' medium (DMEM) supplemented with 10% fetal calf serum (FCS). […] Cells were examined 48 hours after transfection using a Zeiss fluorescence microscope equipped with YFP/CFP filter sets (Omega Optical Inc., Brattleboro, Vt.). The percentage of cells with aggregates was calculated by dividing the number of cells with aggregates by the total number of fluorescent cells, multiplied by 100. […] Cells were incubated with 5 μM ethidium homodimer for 30 minutes (37° C.) and then examined under a fluorescence microscope equipped with a rhodamine filter set. Cells with nuclear fluorescence were counted as dead. In each experiment at least 200 transfected cells were counted. […]

thio-Q62 = test: Thioredoxin-polyglutamine turbidity (aggregation) assay, thio-Q62; assay type: biochemical; conditions: for inhibition of thio-Q62 aggregation (in words): turbidity at 405 nm, FIG. 2
Chain of thio-Q62 (as listed by the source): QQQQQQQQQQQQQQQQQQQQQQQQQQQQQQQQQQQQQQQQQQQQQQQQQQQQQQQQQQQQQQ
Method: (§4) Turbidity assays were performed in 200 μl reactions consisting of thioredoxin-polyglutamine in PBS in 96-well, low protein binding plates. Plates were incubated at 4° C. and turbidity measured at 405 nm on a Thermo Max plate reader (Molecular Devices).
(§5) Peptides were synthesized at the Howard Hughes Medical Institute peptide sequencing facility at Duke University with an acetylated amino terminus and protection of tryptophan with BOC during synthesis. Identical results were obtained with peptides obtained from Bio-Synthesis Inc. (Lewisville, Tex.). Stock solutions of peptides were prepared fresh daily by dissolving in dimethyl sulfoxide at 2.5 mM and incubated with thioredoxin-polyglutamine protein at 0.25-25 μM.
(§6) To monitor thioredoxin-polyglutamine protein aggregation a turbidometric assay was developed, similar to the assays commonly used to study microtubule assembly and β-amyloid aggregation (Jarrett, J. T. et al. (1993) Biochem 32, 4693-4697; Sloboda, R. D. et al. (1976) Biochem 15, 4497-4505). Solutions of thio-Q62 and 81 protein increased turbidity in a polyglutamine length-, time- and concentration-dependent manner (FIG. 1B and C; Time dependence of aggregation of thioredoxin-polyglutamine with 81 glutamines not shown). […] The pelleted and retained material was confirmed as thioredoxin-polyglutamine fusion protein containing 62 or 81 glutamines on western blots probed with anti-thioredoxin or anti-polyglutamine antibody (not shown). In contrast, thioredoxin-polyglutamine protein containing 19 or 35 glutamines (thio-Q19 or 35) was not pelleted by centrifugation and was not trapped by a 0.22 μm filter.

thio-Q19 or 35 = test: Thioredoxin-polyglutamine turbidity assay, nonpathologic thio-Q19 or 35; assay type: biochemical
Method: as §4, §5, §6

Q45-YFP = Q45-YFP aggregate formation in co-transfected COS-7 cells; assay type: cell-based; conditions: COS-7, 48 hours
Chain of Q45-YFP (as listed by the source): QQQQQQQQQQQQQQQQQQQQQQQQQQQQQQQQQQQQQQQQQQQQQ
Method: as §1, with “t-test) […]” for “t-test)”
as §3

Q81-YFP [1] = test: Co-localization with Q81-YFP aggregates in co-transfected COS-7 cells; assay type: cell-based; conditions: co-expression, 48 hours after transfection
Chain of Q81-YFP (as listed by the source): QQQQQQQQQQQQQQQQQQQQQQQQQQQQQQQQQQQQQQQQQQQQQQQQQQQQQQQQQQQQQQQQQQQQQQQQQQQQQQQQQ
Method: The CAG repeat of the Qn-GFP vector (Onodera, O. et al. (1996) FEBS Letters 399, 135-139) were inserted into the XhoI and EcoRI sites of the pEYFP-N1 vector (Clontech, Palo Alto, Calif.) to construct the Qn-YFP vectors. The polyglutamine-binding peptide and control constructs were prepared by ligating synthetic oligonucleotides into the XhoI and BamHI sites of the pECFP-N1 vector (Clontech) to obtain glutamine binding peptide 1-CFP (QBP1-CFP), scrambled QBP1-CFP (SCR-CFP), and a computer-generated random peptide-CFP (RAN)-CFP. The insert of QBP1-CFP was duplicated by PCR to obtain a tandem repeat of QBP1-CFP ((QBP1)2-CFP). The sequence of all constructs was confirmed by DNA sequencing. The first methionine of YFP or CFP was changed to isoleucine by PCR site-directed mutagenesis to eliminate translation of the fluorescent protein without the polyglutamine domain. The sizes of the fluorescent fusion proteins were confirmed by western blotting.
COS-7 cells were grown and maintained in Dulbecco's modified Eagles' medium (DMEM) supplemented with 10% fetal calf serum (FCS). Cells were transfected with Effectene according to manufacturer's instructions (Qiagen GmbH, Hilden, Germany). Cells were examined 48 hours after transfection using a Zeiss fluorescence microscope equipped with YFP/CFP filter sets (Omega Optical Inc., Brattleboro, Vt.). The percentage of cells with aggregates was calculated by dividing the number of cells with aggregates by the total number of fluorescent cells, multiplied by 100. Cell viability was examined 48 hours after transfection using ehtidium homodimer (Molecular Probes, Eugene, Oreg.). Cells were incubated with 5 μM ethidium homodimer for 30 minutes (37° C.) and then examined under a fluorescence microscope equipped with a rhodamine filter set. Cells with nuclear fluorescence were counted as dead. In each experiment at least 200 transfected cells were counted. Cells expressing random peptide-CFP (RAN-CFP) and polyglutamine-YFP (Qn-YFP) were used as a control to calculate the relative difference in aggregate formation and cell death. […]

Q19-YFP = test: Intracellular distribution of Q19-YFP in co-transfected COS-7 cells; assay type: cell-based
Method: as §2
as §3, with “dead.” for “dead. In each experiment at least 200 transfected cells were counted.”

Q81-YFP [2] = test: Q81-YFP aggregate formation in co-transfected COS-7 cells; assay type: cell-based; conditions: COS-7, 48 hours
Method: as §1, with “t-test) […]” for “t-test)”
as §3

Q57-YFP = Q57-YFP aggregate formation in co-transfected COS-7 cells; assay type: cell-based; conditions: COS-7, 48 hours
Chain of Q57-YFP (as listed by the source): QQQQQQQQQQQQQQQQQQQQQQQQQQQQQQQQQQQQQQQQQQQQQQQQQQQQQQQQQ
Method: as §1, with “t-test) […]” for “t-test)”
as §3

[3] = tested on: Q57-YFP induced cell death; test: Q57-YFP induced cell death in co-transfected COS-7 cells (ethidium homodimer); assay type: cell-based; conditions: peptides fused to CFP, co-expressed; for inhibition of Q57-YFP induced cell death: COS-7, 48 hours, ethidium homodimer
Method: FIG. 5. […] Open bar=cells co-transfected with Q57-YFP and RAN-CFP. Hatched bar=cells co-transfected with Q57-YFP and SCR-CFP. Filled bar=cells co-transfected with Q57-YFP and QBP1-CFP. Dotted bar=cells co-transfected with Q57-YFP and (QBPI)2-CFP. COS-7 cells examined 48 hours after transfection using a Zeiss fluorescence microscope with rhodamine filter set. The percentage of dead cells was calculated by counting the number of transfected cells stained with ethidium homodimer and dividing by the total number of transfected cells multiplied times 100. In each experiment at least 200 transfected cells were counted. Experiments were repeated at least three times. Error bars represent standard errors. *=p<0.05; **=p<0.01 (Student's t-test).
COS-7 cells were grown and maintained in Dulbecco's modified Eagles' medium (DMEM) supplemented with 10% fetal calf serum (FCS). Cells were transfected with Effectene according to manufacturer's instructions (Qiagen GmbH, Hilden, Germany). Cells were examined 48 hours after transfection using a Zeiss fluorescence microscope equipped with YFP/CFP filter sets (Omega Optical Inc., Brattleboro, Vt.). The percentage of cells with aggregates was calculated by dividing the number of cells with aggregates by the total number of fluorescent cells, multiplied by 100. Cell viability was examined 48 hours after transfection using ehtidium homodimer (Molecular Probes, Eugene, Oreg.). Cells were incubated with 5 μM ethidium homodimer for 30 minutes (37° C.) and then examined under a fluorescence microscope equipped with a rhodamine filter set. Cells with nuclear fluorescence were counted as dead. In each experiment at least 200 transfected cells were counted. Cells expressing random peptide-CFP (RAN-CFP) and polyglutamine-YFP (Qn-YFP) were used as a control to calculate the relative difference in aggregate formation and cell death. Experiments were repeated at least four times.
The relationship between polyglutamine protein aggregation and cell death is controversial. To determine whether QBP1 or tandem-QBP1 inhibit polyglutamine-induced cell death, cell membrane permeability to ethidium homodimer was assayed. The membranes of living cells are impermeable to ethidium homodimer and permeability to ethidium homodimer is a well-established measure of cell death. Ethidium homodimer undergoes a 30-fold increase in fluorescence upon binding to nucleic acid allowing easy detection with a fluorescence microscope using a rhodamine filter. QBP1 and tandem QBP1 ((QBP1)2) fused to CFP inhibit Q57-YFP induced cell death (FIG. 5). […] Similar results have also been observed with Q45- and Q81-YFP (not shown).

[4] = compared to cells co-expressing RAN-CFP
[5] = peptides at 1 and 10 microMolar

In the case of “(QBP1)2-CFP: tandem repeat of QBP1 fused to cyan fluorescent protein (SNWKWWPGIFDSNWKWWPGIFD; also: fused to cyan fluorescent protein)”, the “effect on percentage of cells with polyglutamine aggregates” value (“effect on percentage of cells” for short) (Qn-YFP) is reported as “more effective”.
In the case of “LSLMEFGCRGA [RAN, computer-generated random 11 amino acid peptide, reference compound]”, the “inhibition of thio-Q62 aggregation (in words)” value (from here on “inhibition … (in words)”) (thio-Q62) is reported as “did not inhibit aggregation” and the “effect on turbidity of nonpathologic thio-Q19 or 35” value (thio-Q19 or 35) is reported as “no effect”.
For “QBP1-CFP: QBP1 fused to cyan fluorescent protein, expressed in COS-7 cells (SNWKWWPGIFD; also: fused to cyan fluorescent protein)”, the “reduction of Q45-YFP aggregation” value (Q45-YFP; [4]) was 39%, the “co-localization with Q81-YFP aggregates” value (Q81-YFP [1]) was “co-localization” and the “effect on percentage of cells” value (Qn-YFP) was “reduced the percentage of cells with polyglutamine aggregates”. For the same substance, the “effect of co-expression on Q19-YFP distribution” value (Q19-YFP) was “unaffected”.
“RAN-CFP: computer-generated random peptide fused to cyan fluorescent protein (LSLMEFGCRGA; also: fused to cyan fluorescent protein)” was tested, and the “co-localization with Q81-YFP aggregates” value (Q81-YFP [1]) was “did not co-localize”.
For “SCR-CFP: scrambled QBP1 fused to cyan fluorescent protein (WPIWSKGNDWF; also: fused to cyan fluorescent protein) [reference compound]”, the “effect on Q45-YFP aggregation (in words)” value (Q45-YFP) was “did not alter aggregation”, the “co-localization with Q81-YFP aggregates” value (Q81-YFP [1]) was “did not co-localize” and the “effect on Q81-YFP aggregation (in words)” value (Q81-YFP [2]) was “did not alter aggregation”. The “effect on Q57-YFP aggregation (in words)” value (Q57-YFP) was “did not alter aggregation”.
With SNWKWWPGIFD [QBP1] the “effect on percentage of cells” value (Qn-YFP) was “decreases the number of cells containing polyglutamine aggregates”, the “effect on Q81-YFP aggregation (in words)” value (Q81-YFP [2]) was “did not reach statistical significance” and the “inhibition of Q57-YFP induced cell death” value [3] was “inhibit; also recorded: inhibits polyglutamine-mediated cell death”. For the same substance, the “reduction of Q57-YFP aggregation” value (Q57-YFP; [4]) was 26%, the “reversal of thio-Q62 aggregation” value (thio-Q62; peptide added after aggregation) was “did not reverse aggregation” and the “inhibition … (in words)” value (thio-Q62) was “potently inhibited”. The “inhibition … (in words)” value (thio-Q62; listed as QBP 1) was “inhibits thio-Q62 aggregation in a concentration-dependent pattern” and the “effect on turbidity of nonpathologic thio-Q19 or 35” value (thio-Q19 or 35) was “no effect”.
“SNWKWWPGIFDSNWKWWPGIFD [(QBP1)2, tandem repeat of QBP1]” was tested, and the “inhibition of cell death compared with monomer QBP1” value [3] was “more effective” and the “inhibition of Q57-YFP induced cell death” value [3] was “inhibit”.
For WDWWPGIFD, the “Ability to Inhibit Aggregation” value (thio-Q62; 5 μm peptide and 15 μM thio-polyglutamine, 62 glutamines, 10 days) was “++ (++ = 50% inhibition)”.
For WKWW, the “inhibition of polyglutamine-thioredoxin aggregation (FIG. 6 and 7)” value (“inhibition … (FIG. 6 and 7)” below) (thio-Q62; [5]) was “does not exhibit substantial inhibition of aggregation”.
For “WKWWFD [QBP1-M6FD, QBP1-M7FD with the proline removed]”, the “inhibition … (FIG. 6 and 7)” value (thio-Q62; [5]) was “significant loss of activity”.
In the case of WKWWPFD, the “inhibition … (FIG. 6 and 7)” value (thio-Q62; [5]) is reported as “some activity at high concentration”.
With WKWWPGIF the “inhibition … (FIG. 6 and 7)” value (thio-Q62) was “retains full inhibitory activity”.

— patent US6632616B2, “Compounds that selectively bind to expanded polyglutamine repeat domains and methods of use thereof” (Duke University, priority 2000, dated 2003)
